The values below come from patent US9540615B2, “Combined chemical and genetic approaches for generation of induced pluripotent stem cells” (The Scripps Research Institute, priority 2008, dated 2017).

Test [1] deals with 129 MEFs transduced with OK (Oct4 and Klf4). Description: Screen for iPSC generation from OK-transduced 129 MEFs (ESC-like colony morphology, ALP staining). Type of test: cell-based, mouse. Conditions: in the absence of BIX. The procedure: Unmodified MEFs derived from E13-14 embryos of the 129 mice were used for the initial screen. MEFs were plated on Matrigel at 3.5×10^4 cells/well of a 6-well plate and transduced with OK (retroviral vectors expressing Oct4 and Klf4) alone. Within 14-21 days, treated cells were assessed for the appearance of colonies that had the characteristic embryonic stem cell (ESC), colony morphology and were positive for the pluripotency marker alkaline phosphatase (ALP). Such OK-transduced cells generated only a few small non-compact colonies, which were weakly positive for ALP expression. These colonies initially appeared within 21 days after viral transduction and were difficult to expand. Therefore, such assay system offered a clean background for the identification of small molecules having desirable reprogramming inducing activity. Using this system, compounds from a library of around 2000 known small molecules (see Experimental Procedures below) were screened and were identified as hits when they induced the appearance of ESC colonies that were strongly positive for ALP within 14-21 days after treatment. This image-based method provided a more accurate assessment of reprogramming as compared to homogenous reporter-based assay. BIX appeared to have the strongest effect with reproducible induction of more than 1-2 compact ESC-like colonies with high ALP expression. We observed that when MEFs were treated with BIX after OK viral transduction, compact colonies with strong ALP expression could be readily detected within approximately 14-21 days. These cells were also positive for Nanog, Oct4 and SSEA-1 expression. […] However, the reprogramming efficiency in MEFs transduced with OK and treated with BIX was still low, about 2 colonies/3.5×10^4 cells, in comparison to the four factor-induced reprogramming of MEFs or the OK/BIX NPC reprogramming (Shi, Y. et al., Cell Stem Cell, 2:525-528 (2008)). Therefore, we conducted a second screen using a similar protocol, but where BIX was added to the basal media after OK viral transduction. This provided a more permissive platform to identify new small molecules that could further improve reprogramming efficiency. More importantly, this second screen could facilitate discovery of small molecules that impact reprogramming in a more specific manner, for example by acting on signal transduction pathways rather than on histone or DNA modifying enzymes. In this second screen, we again assayed the library of around 2000 known small molecules (see Experimental Procedures), and confirmed two compounds that were able to act in a synergistic manner with BIX to improve reprogramming based on the criteria of the screen. […] Therefore, RG108 was not pursued further for this study. […]

For test [2], the system named is OG2 MEFs transduced with OK (Oct4 and Klf4). The experiment in a line: iPSC generation from OK-transduced OG2 MEFs (GFP+ colonies), including second synergist screen with BIX. Type of test: cell-based, mouse. Conditions: for effect on reprogramming of OK transduced MEFs in the second screen: in the presence of 1 μM BIX, FIG. 3: 0.04 μM RG108, 2 μM BayK; for outcome in second synergist screen: 1 μM BIX plus individual compound at 0.5-2 μM, not further followed up. The procedure:
Primary 129S2/SvPasCrlf (primary screen) or ROSA26^+/−/OG2^+/− (secondary screen) MEFs were plated onto Matrigel (1:50; BD Biosciences, Bedford, Mass.) coated dishes at a density of 3.5×10^4 cells per well of a 6-well plate. Twenty-four hours later, these cells were transduced overnight with defined retroviruses at 37° C., 5% CO2. Twelve to fourteen hours later, the media on the transduced cells was changed to mESC medium [Knockout DMEM, 10% ES-qualified FBS, 10% Knockout serum replacement, 1% Glutamax, 1% Non-essential amino acids, penicillin/streptomycin, 0.1 mM β-mercaptoethanol, 1% EmbryoMax ESC Qualified Nucleosides (Millipore, Temecula, Calif.), and 10^3 U/ml LIF (Millipore)] (all products were from Invitrogen, Carlsbad, Calif., except where mentioned). On that same day, individual small molecules from our known drug collection were added to the cells at a range between 0.5 and 2 μM. Compound treatment was continued for 10-14 days; the cells were fixed and stained on day 14-21 using a standard ALP detection kit (Millipore). For the second screen, 1 μM BIX was added to the mESC medium 1 day after transduction. Five days later, in addition to 1 μM BIX, individual small molecule from the known drug collection was added to each well, at a range between 0.5 and 2 μM. Mouse ESC media with defined small molecules was refreshed every three days until colonies with a similar morphology to mESCs were observed, which was usually between 14-21 days after transduction. […] Further characterization studies and repeats were carried either on primary 129S2/SvPasCrlf or ROSA26^+/−/OG2^+/− MEFs. When ROSA26^+/−/OG2^+/− MEFs were used, the iPSC colonies could also be identified through GFP expression, as a marker of Oct4 expression. Once iPSC colonies were identified, they were picked for expansion on MEF feeder cells in mESC medium.

In the next test the test system is mES R1 cells. The experiment in a line: Proliferation assay. Type of test: cell-based, mouse. Conditions: 2 μM BayK, 1 μM BIX or both; 15, 24 and 48 hours; compared to DMSO, n=3. The procedure: mES R1 cells were plated onto gelatin-coated 6-well plates at a density of 2×10^5 cells/well in complete mES cell media. Upon cell attachment, app. 12 hours, the cells were treated either with DMSO, 1 μM BIX, 2 μM BayK, and a combination of both, in triplicate. At 15, 24 and 48 hours, the cells were detached using trypsin, and counted using a hemocytometer. Trypan blue (Sigma-Aldrich, St. Louis, Mo.) was used for dead cell exclusion.

For test [3], the system named is Sox2 expression in OG2 MEFs. Description: Assessment of SOX2 expression after compound treatment (semi-quantitative RT-PCR). Type of test: cell-based, mouse. Conditions: 2 μM BayK alone or with 1 μM BIX, 6 days. The procedure:
OG2^+/−/ROSA26^+/− MEFs were plated onto 6-well plate at a density of 3.4×10^4 cells per well. On the following day, the cells were treated with DMSO, 1 μM BIX, 2 μM BayK, and a combination of both, in triplicate, for 6 days. The media was refreshed at day 3. RNA from each well was then isolated using the RNAeasy Mini Kit (Quiagen). Reverse transcription of the RNA was performed using the iScript™cDNA Synthesis Kit (BioRad, Hercules, Calif.). Amplification of endogenous Sox2 was done using primers previously published (Takahashi, K., Okita, K., Nakagawa, M., and Yamanaka, S. (2007). Induction of pluripotent stem cells from fibroblast cultures. Nat Protoc 2, 3081-3089; Takahashi, K., and Yamanaka, S. (2006). Induction of pluripotent stem cells from mouse embryonic and adult fibroblast cultures by defined factors. Cell 126, 663-676) with Platinum PCR SuperMix (Invitrogen) on a Mastercycler® ep gradient PCR machine (Eppendorf).

A further test concerns cellular reprogramming. The experiment in a line: Enhancement of cellular reprogramming by nuclear receptor ligands. Type of test: cell-based.
Another test concerns Mouse fibroblasts. The experiment in a line: Induction of pluripotency by incubation of fibroblasts with poly-Arg transcription factor proteins. Type of test: cell-based. Conditions: agent added during protein-induced reprogramming. The procedure:
Mouse fibroblasts were grown in mESC medium supplemented with 8 μg/ml of either Oct4/Sox2/Klf4 or Oct4/Sox2/Klf4/Myc (all proteins comprising poly-Arg as described above) for 6-8 hours, washed, and incubated for 2-3 days in mESC media without the above-listed transcription factors. This (4-12 hours with, 1-3 days without) was repeated a number (1, 2, 3, 4, or more) of times and then the cells were cultures in mESC for two weeks.

Another test has as its system non-iPS cells. The experiment in a line: MEK inhibitor applied at late stage of reprogramming as selection: growth of non-iPS cells. Type of test: cell-based, mouse. Conditions: late stage of reprogramming (after Oct4-GFP activation). From the text: (§1) Finally, we observed that the application of a specific small molecule inhibitor of MEK, PD0325901, to late stage of reprogramming (e.g. after Oct4-GFP activation) can serve as an excellent selection strategy for generating iPS cells. Due to the very low efficiency of reprogramming, iPS cells are typically selected out by utilizing reporter (e.g. Neo/Puro or GFP) that is under control of the regulatory elements of a pluripotency marker using genetically modified somatic cell lines, or manually picked out based on cell morphology. While the later method applicable to genetically unmodified cells is better suited for ultimate clinical application of iPS cells, it is a much more tedious and less reliable technique that typically requires picking and propagating over several passages many colonies, only a small fraction of which would become true iPS cells efficiently. This is partly because that large percentage of similarly looking colonies may be partially reprogrammed cells and/or simply transformed cells, which grow rapidly and may interfere with growth and reprogramming of iPS cells. Consequently, having an alternative selection strategy for genetically unmodified cells would be highly desirable.

The subject of a further test is iPS cells. Description: MEK inhibitor applied at late stage of reprogramming as selection: growth and stable reprogramming of iPS cells. Type of test: cell-based, mouse. Conditions: late stage of reprogramming (after Oct4-GFP activation).
Source text: as §1

Molecules are shown by their SMILES. “Also recorded” adds a separate entry of the source.

Turning to `COC(=O)C1=C(C)NC(C)=C([N+](=O)[O-])C1c1ccccc1C(F)(F)F` (stereo not shown) [BayK], the “reprogramming activity on OK-transduced MEFs” value in test [1] is listed as “no observable reprogramming activity”. Also, the “reprogramming efficiency versus OK-transduced MEF control” value in test [2] (compound alone, in the absence of BIX (data not shown)) is “did not increase reprogramming efficiency above OK-transduced MEF control”. The “effect on reprogramming of OK transduced MEFs in the second screen” value in test [2] was “strongest effect in the screen aside from known DNA/histone modifiers”. Moreover, the “proliferation of mES cells (cell number)” value in the test on mES R1 cells is “No significant difference; also recorded: does not lead to a change in proliferation”. Besides, in test [3], the SOX2 expression entry was “does not induce SOX2 expression”.
`C=C(c1ccc(C(=O)O)cc1)c1cc2c(cc1C)C(C)(C)CCC2(C)C` [Bexarotene]: the cellular reprogramming entry in the test on cellular reprogramming (at 3 μM) was “enhance cellular reprogramming”.
Regarding `Cc1c[nH]c(-c2cnc(NCCNc3ccc(C#N)cn3)nc2-c2ccc(Cl)cc2Cl)n1` [CHIR99021], the “efficiency and speed of development of pluripotent cells” value (“efficiency and speed” below) in the test with Mouse fibroblasts is “improved efficiency and speed of development of pluripotent cells”.
Take `CC(C)C[C@H](NC(=O)OCC1c2ccccc2-c2ccccc21)C(=O)O` [Fmoc-Leu]: in the test with cellular reprogramming (at 5 μM), the cellular reprogramming entry is reported as “enhance cellular reprogramming”.
Turning to `CCN(CC)CCCCNc1ncc2cc(-c3cc(OC)cc(OC)c3)c(NC(=O)NC(C)(C)C)nc2n1` [PD173074], the “outcome in second synergist screen” value in test [2] is on record as “primary hits”.
In the case of `O=C(NOC[C@H](O)CO)c1ccc(F)c(F)c1Nc1ccc(I)cc1F` [PD0325901], the “growth of non-iPS cells” value with non-iPS cells was “inhibits growth of non-iPS cells”. Further, in the test on iPS cells, the “growth and stable reprogramming of iPS cells” value was “effectively promotes growth and stable reprogramming of iPS cells”. For the same compound, in the test on Mouse fibroblasts, the “efficiency and speed” value was “improved efficiency and speed of development of pluripotent cells”.
As to `O=C(O)C(Cc1c[nH]c2ccccc12)N1C(=O)c2ccccc2C1=O` (stereo not shown) [RG108], in test [2], the “effect on reprogramming of OK transduced MEFs in the second screen” value is recorded as “enhanced reprogramming of OK transduced MEFs in the presence of BIX”.
Consider `NC(=O)c1ccc(-c2nc(-c3ccc4c(c3)OCO4)c(-c3ccccn3)[nH]2)cc1` [SB431542], for which the “efficiency and speed” value in the test on Mouse fibroblasts was “improved efficiency and speed of development of pluripotent cells”.
Take `Cc1cc(Nc2ncc3c(n2)N(C)C(=O)N(c2cc(NC(=O)c4cccc(C(F)(F)F)c4)ccc2C)C3)n(C)n1` [pluripotin]: in test [2], the “outcome in second synergist screen” value was “primary hits”.
For `c1nc2nc(Nc3ccc(N4CCOCC4)cc3)nc(NC3CCCCC3)c2[nH]1` [reversine], the “outcome in second synergist screen” value in test [2] was “primary hits”.
